Data published in patent publication US6245817A, “NPY5 receptor antagonists and methods for using same” (Bayer Corporation, priority 1999, dated 2001).

Key:
Rat NPY5 Receptor = molecular target: T1, Rat NPY5 Receptor (Rattus norvegicus, UniProt Q63634); test: Rat NPY5 Receptor Binding Assay; settings: [125I]PYY; read-out: rNPY5 IC50
T1 sequence (Q63634 1-445): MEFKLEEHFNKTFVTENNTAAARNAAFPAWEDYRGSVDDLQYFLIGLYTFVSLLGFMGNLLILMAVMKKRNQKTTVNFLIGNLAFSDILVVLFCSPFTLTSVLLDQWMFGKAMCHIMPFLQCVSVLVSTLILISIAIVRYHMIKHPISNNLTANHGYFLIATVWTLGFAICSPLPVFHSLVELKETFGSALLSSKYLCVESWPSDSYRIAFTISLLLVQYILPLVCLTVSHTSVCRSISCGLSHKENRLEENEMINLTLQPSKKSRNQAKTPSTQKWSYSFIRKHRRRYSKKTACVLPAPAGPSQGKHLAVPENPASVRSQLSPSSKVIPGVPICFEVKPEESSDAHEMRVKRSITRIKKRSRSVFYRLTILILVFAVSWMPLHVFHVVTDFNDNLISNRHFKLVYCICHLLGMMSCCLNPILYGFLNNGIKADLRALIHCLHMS

Human NPY5 Receptor = molecular target: T2, Human NPY5 Receptor (Homo sapiens, UniProt Q15761); test: Human NPY5 Receptor Binding Assay; settings: [125I]PYY; read-out: hNPY5 IC50
T2 sequence (Q15761 1-445): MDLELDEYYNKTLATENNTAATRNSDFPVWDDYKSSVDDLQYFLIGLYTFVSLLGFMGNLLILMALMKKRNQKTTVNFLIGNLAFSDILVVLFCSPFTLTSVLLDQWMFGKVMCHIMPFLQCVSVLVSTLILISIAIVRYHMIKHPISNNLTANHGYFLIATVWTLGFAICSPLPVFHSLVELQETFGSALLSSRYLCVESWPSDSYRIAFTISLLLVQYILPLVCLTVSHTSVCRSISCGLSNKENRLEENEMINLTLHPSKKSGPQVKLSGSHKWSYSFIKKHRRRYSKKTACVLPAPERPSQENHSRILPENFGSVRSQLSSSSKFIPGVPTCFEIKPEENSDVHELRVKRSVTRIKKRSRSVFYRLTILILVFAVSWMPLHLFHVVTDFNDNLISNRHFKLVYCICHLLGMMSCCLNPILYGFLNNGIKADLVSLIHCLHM

Row | IC50 (Rat NPY5 Receptor) [nM] | IC50 (Human NPY5 Receptor) [nM] | SMILES
1 | 2000 | 1300 | O=C(CSc1nnc(NC2CCCCC2)s1)Nc1ccc(C2CCCCC2)cc1 [Compound 116]
2 | 1500 | 630 | CSc1sc(-c2nnc(SCC(=O)Nc3ccc(C(=O)c4ccccc4)cc3)n2C)c2c1C=CCC2 [Compound 119]
3 | 530 | 1300 | COc1ccc(-c2nnc(SCC(=O)Nc3ccc(C(=O)c4ccccc4)cc3)n2-c2cccc(C(F)(F)F)c2)cc1 [Compound 120, N-(4-Benzoyl-phenyl)-2-(5-(4-methoxy-phenyl)-4-(3-trifluoromethyl-phenyl)-4H-[1,2,4]triazol-3-ylsulfanyl]-acetamide]
4 | 2800 | 910 | Cn1c(CO)cnc1SCC(=O)Nc1ccc(C(=O)c2ccccc2)cc1 [Compound 121, N-(4-Benzoyl-phenyl)-2-(5-hydroxymethyl-1-methyl-1H-imidazol-2-ylsulfanyl)acetamide]
5 | > 1000 | 1500 | COC(=O)c1cnc(SCC(=O)Nc2ccc(C(=O)c3ccccc3)cc2)n1C [Compound 122, 2-[(4-Benzoyl-phenylcarbamoyl)-methylsulfanyl]-3-methyl-3H-imidazole-4-carboxylic acid methyl ester]
6 | 530 | 420 | O=C(CSc1nnc(NC2CCCCC2)s1)Nc1ccc(C(=O)c2ccccc2)cc1 [Compound 123, N-(4-Benzoyl-phenyl)-2-(5-cyclohexylamino [1,3,4]thiadiazol-2-ylsulfanyl)-acetamide]
7 | 2300 | > 1000 | O=C(CSc1nnc(CSCCOc2ccc(Cl)cc2Cl)o1)Nc1ccc(C(=O)c2ccccc2)cc1 [Compound 124]
8 | 360 | 1000 | CC(Sc1nnnn1C)C(=O)Nc1ccc(C(C)(C)C)cc1 (stereo not drawn) [Compound 125, N-(4-tert-Butyl-phenyl)-2-(1-methyl-1H-tetrazol-5-ylsulfanyl)-propionamide]
9 | 50 | 59 | CC(Sc1nnnn1C)C(=O)Nc1ccc(C2CCCCC2)cc1 (stereo not drawn) [Compound 127, N-(4-Cyclohexyl-phenyl)-2-(1-methyl-1H-tetrazol-5-ylsulfanyl)-propionamide]
10 | 150 | 160 | Cn1nnnc1SCC(=O)Nc1ccc2c(c1)Cc1ccccc1-2 [Compound 130, N-(9H-Fluoren-2-yl)-2-(1-methyl-1H-tetrazol-5-ylsulfanyl)-acetamide]

More lines, now with the values behind:

Row | SMILES | IC50 (Rat NPY5 Receptor) [nM] | IC50 (Human NPY5 Receptor) [nM]
11 | O=C(CSc1nccc(C(F)(F)F)n1)Nc1ccc(C(=O)c2ccccc2)cc1 [Compound 83, N-(4-Benzoyl-phenyl)-2-(4-trifluoromethylpyrimidin-2-ylsulfanyl)-acetamide] | 200 | 210
12 | O=C(CSc1nc(-c2ccccc2)no1)Nc1ccc(C(=O)c2ccccc2)cc1 [Compound 85, N-(4-Benzoyl-phenyl)-2-(3-phenyl-[1,2,4]oxadiazol-ylsulfanyl)-acetamide] | 220 | 200
13 | Cc1nnc(SCC(=O)Nc2ccc(C(=O)c3ccccc3)cc2)s1 [Compound 86, N-(4-Benzoyl-phenyl)-2-(5-methyl-[1,3,4]thiadiazol-2-ylsulfanyl)-acetamide] | 150 | 170
14 | O=C(CSc1nnnn1-c1ccc(O)cc1)Nc1ccc(C(=O)c2ccccc2)cc1 [Compound 87, N-(4-Benzoyl-phenyl)-2-[1-(4-hydroxy-phenyl)-1H-tetrazol-5-ylsulfanyl]-acetamide] | 120 | 100
15 | O=C(CSc1nnc(-c2ccccc2)o1)Nc1ccc(C(=O)c2ccccc2)cc1 [Compound 89, N-(4-Benzoyl-phenyl)-2-(5-phenyl [1,3,4]oxadiazol-2-ylsulfanyl)-acetamide] | 720 | 590
16 | O=C(CSc1nc(-c2ccccc2)no1)Nc1ccc(C2CCCCC2)cc1 [Compound 90, N-(4-Cyclohexyl-phenyl)-2-(3-phenyl-[1,2,4]oxadiazol-ylsulfanyl)-acetamide] | 340 | 260
17 | Cc1nnc(SCC(=O)Nc2ccc(C3CCCCC3)cc2)s1 [Compound 91, N-(4-Cyclohexyl-phenyl)-2-(5-methyl [1,3,4]thiadiazol-2-ylsulfanyl)-acetamide] | 84 | 80
18 | O=C(CSc1nnnn1-c1ccc(O)cc1)Nc1ccc(C2CCCCC2)cc1 [Compound 92, N-(4-Cyclohexyl-phenyl)-2-[1-(4-hydroxy-phenyl)-1H-tetrazo-ylsulfanyl]-acetamide] | 72 | 81
19 | O=C(CSc1nnc(-c2ccccc2)o1)Nc1ccc(C2CCCCC2)cc1 [Compound 94, N-(4-Cyclohexyl-phenyl)-2-(5-phenyl-[1,3,4]oxadiazo-2-ylsulfanyl)-acetamide] | 1200 | 670
20 | O=C(CSCc1cccc(CS)c1)Nc1ccc(C2CCCCC2)cc1 [Compound 96, N-(4-Cyclohexyl-phenyl)-2-(3-mercaptomethyl-benzylsulfanyl)-acetamide] | 610 | 850
21 | Nc1ccccc1SCC(=O)Nc1ccc(C2CCCCC2)cc1 [Compound 97, 2-(2-Amino-phenylsulfanyl)-N-(4-cyclohexyl-phenyl)-acetamide] | 90 | 110
22 | Nc1cccc(SCC(=O)Nc2ccc(C3CCCCC3)cc2)c1 [Compound 98, 2-(3-Amino-phenylsulfanyl)-N-(4-cyclohexyl-phenyl)-acetamide] | 290 | 320
23 | Nc1ccc(SCC(=O)Nc2ccc(C3CCCCC3)cc2)cc1 [Compound 99, 2-(4-Amino-phenylsulfanyl)-N-(4-cyclohexyl-phenyl)-acetamide] | 510 | 690
24 | O=C(CSCc1cccc(CS)c1)Nc1ccc(C(=O)c2ccccc2)cc1 [Compound 101, N-(4-Benzoyl-phenyl)-2-(3-mercaptomethyl-benzylsulfanyl)-acetamide] | 1500 | 1400
25 | Nc1cccc(SCC(=O)Nc2ccc(C(=O)c3ccccc3)cc2)c1 [Compound 102, 2-(3-Amino-phenylsulfanyl)-N-(4-benzoyl-phenyl)-acetamide] | 310 | 340
26 | O=C(CSC1CCCC1)Nc1ccc(C(=O)c2ccccc2)cc1 [Compound 109, N-(4-Benzoyl-phenyl)-2-cyclopentylsulfanyl-acetamide] | 370 | 610
27 | O=C(CSCc1ccco1)Nc1ccc(C(=O)c2ccccc2)cc1 [Compound 110, N-(4-Benzoyl-phenyl)-2-(furan-2-ylmethylsulfanyl)-acetamide] | 340 | 290
28 | O=C(CSc1nnc(-c2ccco2)[nH]1)Nc1ccc(C2CCCCC2)cc1 [Compound 111, N-(4-Cyclohexyl-phenyl)-2-(5-furan-2-yl-4H-[1,2,4]triazol-3-ylsulfanyl)-acetamide] | 570 | 1400
29 | Cn1c(CO)cnc1SCC(=O)Nc1ccc(C2CCCCC2)cc1 [Compound 114, N-(4-Cyclohexyl-phenyl)-2-(5-hydroxymethyl-1-methyl-1H-imidazol-2-ylsulfanyl)-acetamide] | 390 | 900
30 | COC(=O)c1cnc(SCC(=O)Nc2ccc(C3CCCCC3)cc2)n1C [Compound 115] | 360 | 900
